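Assay format: 96-well plates, 48-hour exposure. GI50 = concentration required for 50% inhibition of growth. The concentration for full growth arrest is given as TGI.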
Key:
Test in all cases: NCI anticancer screen, dose series, 48 h
786-0 renal = test system: 786-0 renal
A498 renal = test system: A498 renal
ACHN renal = test system: ACHN renal
BT-549 breast = test system: BT-549 breast
CAKI-1 renal = test system: CAKI-1 renal
CCRF-CEM leukemia = test system: CCRF-CEM leukemia
DU-145 prostate = test system: DU-145 prostate
EKVX NSCLC = test system: EKVX NSCLC
HCC-2998 colon = test system: HCC-2998 colon
HCT-116 colon = test system: HCT-116 colon
HCT-15 colon = test system: HCT-15 colon
HOP-62 NSCLC = test system: HOP-62 NSCLC
HOP-92 NSCLC = test system: HOP-92 NSCLC
IGROV1 ovarian = test system: IGROV1 ovarian
K-562 leukemia = test system: K-562 leukemia
KM12 colon = test system: KM12 colon
LOX IMVI melanoma = test system: LOX IMVI melanoma
M14 melanoma = test system: M14 melanoma
MALME-3M melanoma = test system: MALME-3M melanoma
MCF7 breast = test system: MCF7 breast
MDA-MB-231 breast = test system: MDA-MB-231 breast
MDA-MB-435 = test system: MDA-MB-435
MOLT-4 leukemia = test system: MOLT-4 leukemia
NCI-H226 lung = test system: NCI-H226 lung
NCI-H460 lung = test system: NCI-H460 lung
NCI-H522 lung = test system: NCI-H522 lung
NCI/ADR-RES ovarian = test system: NCI/ADR-RES ovarian
OVCAR-3 ovarian = test system: OVCAR-3 ovarian
OVCAR-5 ovarian = test system: OVCAR-5 ovarian
OVCAR-8 ovarian = test system: OVCAR-8 ovarian
PC-3 prostate = test system: PC-3 prostate
RPMI-8226 leukemia = test system: RPMI-8226 leukemia
SF-268 CNS = test system: SF-268 CNS
SF-295 CNS = test system: SF-295 CNS
SF-539 CNS = test system: SF-539 CNS
SK-MEL-2 melanoma = test system: SK-MEL-2 melanoma
SK-MEL-28 melanoma = test system: SK-MEL-28 melanoma
SK-MEL-5 melanoma = test system: SK-MEL-5 melanoma
SK-OV-3 ovarian = test system: SK-OV-3 ovarian
SN12C renal = test system: SN12C renal
SNB-19 CNS = test system: SNB-19 CNS
SNB-75 CNS = test system: SNB-75 CNS
SR leukemia = test system: SR leukemia
SW-620 colon = test system: SW-620 colon
T-47D breast = test system: T-47D breast
TK-10 renal = test system: TK-10 renal
U251 CNS = test system: U251 CNS
UACC-257 melanoma = test system: UACC-257 melanoma
UACC-62 melanoma = test system: UACC-62 melanoma
UO-31 renal = test system: UO-31 renal

## CS(=O)(=O)c1ccc2c(c1)c1c(n2S(=O)(=O)c2ccc(Cl)cc2)CCCC1
786-0 renal
  GI50: 4.73 µM
  TGI: > 100 µM
A498 renal
  GI50: > 100 µM
  TGI: > 100 µM
ACHN renal
  GI50: 7.56 µM
  TGI: > 100 µM
BT-549 breast
  GI50: 5.39 µM
  TGI: > 100 µM
CAKI-1 renal
  GI50: 3.12 µM
  TGI: > 100 µM
CCRF-CEM leukemia
  GI50: 3.16 µM
  TGI: > 100 µM
DU-145 prostate
  GI50: 4.3 µM
  TGI: > 100 µM
EKVX NSCLC
  GI50: 5.55 µM
  TGI: > 100 µM
HCC-2998 colon
  GI50: 3.57 µM
  TGI: > 100 µM
HCT-116 colon
  GI50: 3.5 µM
  TGI: > 100 µM
HCT-15 colon
  GI50: 1930 nM
  TGI: > 100 µM
HOP-62 NSCLC
  GI50: 4.3 µM
  TGI: > 100 µM
HOP-92 NSCLC
  GI50: 3.04 µM
  TGI: > 100 µM
IGROV1 ovarian
  GI50: 5.24 µM
  TGI: > 100 µM
K-562 leukemia
  GI50: 706 nM
  TGI: > 100 µM
KM12 colon
  GI50: 3.16 µM
  TGI: > 100 µM
LOX IMVI melanoma
  GI50: 4.32 µM
  TGI: > 100 µM
M14 melanoma
  GI50: 3.69 µM
  TGI: > 100 µM
MALME-3M melanoma
  GI50: 7.11 µM
  TGI: > 100 µM
MCF7 breast
  GI50: 2610 nM
  TGI: > 100 µM
MDA-MB-231 breast
  GI50: 4.25 µM
  TGI: > 100 µM
MDA-MB-435
  GI50: 583 nM
  TGI: 3.29 µM
MOLT-4 leukemia
  GI50: 4.49 µM
  TGI: > 100 µM
NCI-H226 lung
  GI50: 3.22 µM
  TGI: > 100 µM
NCI-H460 lung
  GI50: 3.5 µM
  TGI: > 100 µM
NCI-H522 lung
  GI50: 1080 nM
  TGI: 3.39 µM
NCI/ADR-RES ovarian
  GI50: 2330 nM
  TGI: > 100 µM
OVCAR-3 ovarian
  GI50: 3.56 µM
  TGI: > 100 µM
OVCAR-5 ovarian
  GI50: 5.37 µM
  TGI: > 100 µM
OVCAR-8 ovarian
  GI50: 4.11 µM
  TGI: > 100 µM
PC-3 prostate
  GI50: 3.42 µM
  TGI: > 100 µM
RPMI-8226 leukemia
  GI50: 3.72 µM
  TGI: > 100 µM
SF-268 CNS
  GI50: > 100 µM
  TGI: > 100 µM
SF-295 CNS
  GI50: 4.08 µM
  TGI: > 100 µM
SF-539 CNS
  GI50: 3.15 µM
  TGI: > 100 µM
SK-MEL-2 melanoma
  GI50: 2150 nM
  TGI: 7.44 µM
SK-MEL-28 melanoma
  GI50: 34.8 µM
  TGI: > 100 µM
SK-MEL-5 melanoma
  GI50: 3.92 µM
  TGI: > 100 µM
SK-OV-3 ovarian
  GI50: 4.95 µM
  TGI: > 100 µM
SN12C renal
  GI50: 5.19 µM
  TGI: > 100 µM
SNB-19 CNS
  GI50: 5.54 µM
  TGI: > 100 µM
SNB-75 CNS
  GI50: 1420 nM
  TGI: 6.15 µM
SR leukemia
  GI50: 594 nM
  TGI: > 100 µM
SW-620 colon
  GI50: 2820 nM
  TGI: > 100 µM
T-47D breast
  GI50: 3.71 µM
  TGI: > 100 µM
TK-10 renal
  GI50: > 100 µM
  TGI: > 100 µM
U251 CNS
  GI50: 4.68 µM
  TGI: > 100 µM
UACC-257 melanoma
  GI50: 10.3 µM
  TGI: > 100 µM
UACC-62 melanoma
  GI50: 3.14 µM
  TGI: > 100 µM
UO-31 renal
  GI50: 3.82 µM
  TGI: > 100 µM

From PubChem BioAssay (NCI)
